Laboratory results from patent publication US8278465B2, “Coumarin derivative having antitumor activity” (Chugai Seiyaku Kabushiki Kaisha, priority 2006, dated 2012).
Like-named read-outs stand apart in the source and are kept apart here.

Tested on: human colon cancer cell line HCT116
Assay: Measurement of cell proliferation inhibitory activity (Cell Counting Kit-8)
Type: cell-based
Conditions: HCT116, 4 days incubation, read-out: IC50 (50% proliferation inhibitory concentration)
Protocol: The cell proliferation inhibitory activities of the compounds and salts shown in Tables 1-1, 1-2 and Table 2 were measured as follows, using the human colon cancer cell line HCT116 (American Type Culture Collection, VA, USA). 2000 to 3000 cells per well of the human colon cancer cell line HCT116 was placed in a 96-well culture plate, a predetermined concentration (0.00038 μM, 0.00076 μM, 0.0015 μM, 0.0031 μM, 0.0061 μM, 0.012 μM, 0.024 μM, 0.049 μM, 0.098 μM, 0.195 μM, 0.39 μM, 0.78 μM, 1.56 μM, 3.13 μM, 6.25 μM, 12.5 μM, 25 μM or 50 μM) of the test substance was added thereto, and the mixture was then incubated at 37° C. under 5% CO2 environment for 4 days. On day 4 of incubation, the Cell Counting Kit-8 solution (Dojindo Laboratories) was added, the absorbance (measurement wavelength: 450 nm; reference wavelength: 615 nm) was measured following the protocol attached to the kit, and the 50% proliferation inhibitory concentration (IC50) was calculated.

[1] = Homo sapiens, HCT-116, 96 h, Table 1-1
[2] = Homo sapiens, HCT-116, 96 h, Table 1-2

## Cc1c(Cc2ccccc2)c(=O)oc2cc(OC(=O)N(C)C)c(Cl)cc12 [Comp. 2, dimethylcarbamic acid 2-oxo-2H-3-benzyl-4-methyl-6-chloro-1-benzopyran-7-yl ester, reference compound]
Table 1-2
  IC50: 1300 nM

## CNS(=O)(=O)Nc1cccc(Cc2c(CF)c3cc(Cl)c(OC(=O)N(C)C)cc3oc2=O)c1 [Compound 1j-1-3-2F, Dimethylcarbamic acid 6-chloro-4-fluoromethyl-3-{3-(methylaminosulfonyl)aminobenzyl}-2-oxo-2H-1-benzopyran-7-yl ester]
[1]
  IC50: 19.5 nM

## Cc1c(Cc2cccc(NS(N)(=O)=O)c2F)c(=O)oc2cc(OC(=O)N(C)C)ccc12 [Compound 1j-1-4-1, Dimethylcarbamic acid 3-(3-aminosulfonylamino-2-fluoro-benzyl)-4-methyl-2-oxo-2H-1-benzopyran-7-yl ester]
[1]
  IC50: 17.6 nM

## CNS(=O)(=O)Nc1cccc(Cc2c(C)c3ccc(OC(=O)N(C)C)cc3oc2=O)c1F [Compound 1j-1-4-2, Dimethylcarbamic acid 3-(3-methylaminosulfonylamino-2-fluorobenzyl)-4-methyl-2-oxo-2H-1-benzopyran-7-yl ester]
[1]
  IC50: 9.3 nM

## CNS(=O)(=O)Nc1cccc(Cc2c(CF)c3ccc(OC(=O)N(C)C)cc3oc2=O)c1F [Compound 1j-1-4-2F, Dimethylcarbamic acid 3-(3-methylaminosulfonylamino-2-fluorobenzyl)-4-fluoromethyl-2-oxo-2H-1-benzopyran-7-yl ester]
[1]
  IC50: 10.6 nM

## Cc1c(Cc2cccc(NS(N)(=O)=O)c2F)c(=O)oc2cc(OC(=O)N(C)C)c(F)cc12 [Compound 1j-1-5-1, Dimethylcarbamic acid 3-{2-fluoro-3-(aminosulfonyl)aminobenzyl}-6-fluoro-4-methyl-2-oxo-2H-1-benzopyran-7-yl ester]
[1]
  IC50: 8.3 nM

## CNS(=O)(=O)Nc1cccc(Cc2c(C)c3cc(F)c(OC(=O)N(C)C)cc3oc2=O)c1F [Compound 1j-1-5-2, Dimethylcarbamic acid 6-fluoro-4-methyl-3-{2-fluoro-3-(methylaminosulfonyl)aminobenzyl}-2-oxo-2H-1-benzopyran-7-yl ester]
[1]
  IC50: 2.9 nM

## Cc1c(Cc2cccc(NS(N)(=O)=O)c2)c(=O)oc2cc(OC(=O)N(C)C)c(I)cc12 [Compound 1j-1-7-1, Dimethylcarbamic acid 3-{3-(aminosulfonyl)aminobenzyl}-6-iodo-4-methyl-2-oxo-2H-1-benzopyran-7-yl ester]
[1]
  IC50: 11.4 nM

## CNS(=O)(=O)Nc1cccc(Cc2c(C)c3cc(I)c(OC(=O)N(C)C)cc3oc2=O)c1 [Compound 1j-1-7-2, Dimethylcarbamic acid 6-iodo-4-methyl-3-{3-(methylaminosulfonyl)aminobenzyl}-2-oxo-2H-1-benzopyran-7-yl ester]
[1]
  IC50: 7.9 nM

## CNS(=O)(=O)Nc1cccc(Cc2c(C)c3cc(C)c(OC(=O)N(C)C)cc3oc2=O)c1 [Compound 1j-1-8-2, Dimethylcarbamic acid 6-methyl-4-methyl-3-{3-(methylaminosulfonyl)aminobenzyl}-2-oxo-2H-1-benzopyran-7-yl ester]
[1]
  IC50: 21.7 nM

## CNS(=O)(=O)Nc1cccc(Cc2c(C)c3cc(C#N)c(OC(=O)N(C)C)cc3oc2=O)c1 [Compound 1j-1-9-2]
[1]
  IC50: 24.2 nM

## CNS(=O)(=O)Nc1cc(Cc2c(C)c3ccc(OC(=O)N(C)C)cc3oc2=O)ccn1 [Compound 1j-1-10-2, Dimethylcarbamic acid 4-methyl-3-{2-(methylaminosulfonyl)aminopyridin-4-ylmethyl}-2-oxo-2H-1-benzopyran-7-yl ester]
[2]
  IC50: 31.9 nM

## CNS(=O)(=O)Nc1cc(Cc2c(C)c3cc(F)c(OC(=O)N(C)C)cc3oc2=O)ccn1 [Compound 1j-1-11-2, Dimethylcarbamic acid 4-methyl-3-{2-(methylaminosulfonyl)aminopyridin-4-ylmethyl}-6-fluoro-2-oxo-2H-1-benzopyran-7-yl ester]
[2]
  IC50: 18.3 nM

## CNS(=O)(=O)Nc1cc(Cc2c(C)c3cc(Cl)c(OC(=O)N(C)C)cc3oc2=O)ccn1 [Compound 1j-1-12-2, Dimethylcarbamic acid 4-methyl-3-{2-(methylaminosulfonyl)aminopyridin-4-ylmethyl}-6-chloro-2-oxo-2H-1-benzopyran-7-yl ester]
[2]
  IC50: 6.4 nM

## CNS(=O)(=O)Nc1nccc(Cc2c(C)c3cc(F)c(Oc4ncccn4)cc3oc2=O)c1F [Compound 1j-2-17-2, 3-{2-(methylaminosulfonyl)amino-3-fluoropyridin-4-ylmethyl}-4-methyl-6-fluoro-7-(pyrimidin-2-yloxy)-2-oxo-2H-1-benzopyran]
[2]
  IC50: 21.1 nM

## CNS(=O)(=O)Nc1nccc(Cc2c(C)c3cc(Cl)c(Oc4ncccn4)cc3oc2=O)c1F [Compound 1j-2-18-2, 3-{2-(Methylaminosulfonyl)amino-3-fluoropyridin-4-ylmethyl}-4-methyl-6-chloro-7-(pyrimidin-2-yloxy)-2-oxo-2H-1-benzopyran]
[2]
  IC50: 5.9 nM

## CNS(=O)(=O)Nc1nccc(Cc2c(C)c3cc(C)c(Oc4ncccn4)cc3oc2=O)c1F [Compound 1j-2-19-2, 3-{2-(Methylaminosulfonyl)amino-3-fluoropyridin-4-ylmethyl}-4-methyl-6-methyl-7-(pyrimidin-2-yloxy)-2-oxo-2H-1-benzopyran]
[2]
  IC50: 17.8 nM

## CCc1c(Cc2ccnc(NS(=O)(=O)NC)c2F)c(=O)oc2cc(Oc3ncccn3)c(C)cc12 [Compound 1j-2-19-2Me, 3-{2-(Methylaminosulfonyl)amino-3-fluoropyridin-4-ylmethyl}-4-ethyl-6-methyl-7-(pyrimidin-2-yloxy)-2-oxo-2H-1-benzopyran]
[2]
  IC50: 8.4 nM

## Cc1c(Cc2cccc(NS(N)(=O)=O)c2F)c(=O)oc2cc(Oc3nccs3)ccc12 [Compound 1j-3-4-1, 3-{2-Fluoro-3-(aminosulfonyl)aminobenzyl}-4-methyl-7-(thiazol-2-yloxy)-2-oxo-2H-1-benzopyran]
[2]
  IC50: 22.5 nM

## CNS(=O)(=O)Nc1cccc(Cc2c(C)c3ccc(Oc4nccs4)cc3oc2=O)c1F [Compound 1j-3-4-2, 3-{2-Fluoro-3-(methylaminosulfonyl)aminobenzyl}-4-methyl-7-(thiazol-2-yloxy)-2-oxo-2H-1-benzopyran]
[2]
  IC50: 10.9 nM

## CNS(=O)(=O)Nc1cc(Cc2c(C)c3cc(Cl)c(Oc4nccs4)cc3oc2=O)ccn1 [Compound 1j-3-12-2, 3-{2-(Methylaminosulfonyl)aminopyridin-4-ylmethyl}-4-methyl-6-chloro-7-(thiazol-2-yloxy)-2-oxo-2H-1-benzopyran]
[2]
  IC50: 12.2 nM

## CNS(=O)(=O)Nc1nccc(Cc2c(C)c3cc(C)c(Oc4nccs4)cc3oc2=O)c1F [Compound 1j-3-19-2, 3-{2-(Methylaminosulfonyl)amino-3-fluoropyridin-4-ylmethyl}-4-methyl-6-methyl-7-(thiazol-2-yloxy)-2-oxo-2H-1-benzopyran]
[2]
  IC50: 1.5 nM

## CNS(=O)(=O)Nc1cc(Cc2c(C)c3cc(C)c(Oc4nccs4)cc3oc2=O)ccn1 [Compound 1j-3-20-2, 3-{2-(Methylaminosulfonyl)aminopyridin-4-ylmethyl}-4-methyl-6-methyl-7-(thiazol-2-yloxy)-2-oxo-2H-1-benzopyran]
[2]
  IC50: 8.9 nM

## CNS(=O)(=O)Nc1nccc(Cc2c(C)c3cc(C)c(Oc4nccs4)cc3oc2=O)c1Cl [Compound 1j-3-44-2, 3-{2-(Methylaminosulfonyl)amino-3-chloropyridin-4-ylmethyl}-4-methyl-6-methyl-7-(thiazol-2-yloxy)-2-oxo-2H-1-benzopyran]
[2]
  IC50: 12.9 nM

## CNC(=O)CS(=O)(=O)Nc1cccc(Cc2c(C)c3cc(Cl)c(OC(=O)N(C)C)cc3oc2=O)c1 [Compound 1o-1-3-2, Dimethylcarbamic acid 3-(3-methylcarbamoylmethanesulfonylamino-benzyl)-6-chloro-4-methyl-2-oxo-2H-1-benzopyran-7-yl ester]
[1]
  IC50: 21 nM

## Cc1c(Cc2cccc(NS(=O)(=O)CC(=O)N(C)C)c2)c(=O)oc2cc(OC(=O)N(C)C)c(Cl)cc12 [Compound 1o-1-3-3, Dimethylcarbamic acid 3-(3-dimethylcarbamoylmethanesulfonylamino-benzyl)-6-chloro-4-methyl-2-oxo-2H-1-benzopyran-7-yl ester]
[1]
  IC50: 16 nM
